Source: US20210382058A1, “PATIENT SELECTION FOR TREATMENT OF MYC POSITIVE CANCERS WITH INDENOISOQUINOLINES” (Purdue Research Foundation, priority 2020, published 2021)
Like-named read-outs stand apart in the source and are kept apart here.

Key:
NCI-60 cancer cell lines = test: NCI-60 cancer cell line drug screen (GI50, MGM); format: cell-based, human; conditions: Homo sapiens; for GI50: read-out: Antiproliferative Activities [GI50 (μM)]
Experimental: Cancer cells were incubated with the test compounds at five concentrations ranging from 100 μM to 10 nM for 48 h. […] The approximate average of GI50 values across the entire panel of NCI-60 cancer cell lines for each compound was recorded as the MGM value.

[1] = tested on: MYC protein expression in MCF-7 breast cancer cells; test: Western blotting of MYC protein level in MCF-7 cells; format: cell-based, human
Summary of the method: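 MCF-7 cells were exposed to compounds at 0.5, 1, 2 and 4 μM for 24 hours at 37° C. MYC was detected by immunoblot with ECL, using rabbit anti-MYC (1:1000) and anti-GAPDH (1:2000) as loading control.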

human topoisomerase I = target: T1, human topoisomerase I (Homo sapiens, UniProt P11387); conditions: relative topoisomerase I inhibition levels, previously determined, six levels (0 - 5, +++++ = 5); cited from earlier work
T1 sequence (P11387 1-765): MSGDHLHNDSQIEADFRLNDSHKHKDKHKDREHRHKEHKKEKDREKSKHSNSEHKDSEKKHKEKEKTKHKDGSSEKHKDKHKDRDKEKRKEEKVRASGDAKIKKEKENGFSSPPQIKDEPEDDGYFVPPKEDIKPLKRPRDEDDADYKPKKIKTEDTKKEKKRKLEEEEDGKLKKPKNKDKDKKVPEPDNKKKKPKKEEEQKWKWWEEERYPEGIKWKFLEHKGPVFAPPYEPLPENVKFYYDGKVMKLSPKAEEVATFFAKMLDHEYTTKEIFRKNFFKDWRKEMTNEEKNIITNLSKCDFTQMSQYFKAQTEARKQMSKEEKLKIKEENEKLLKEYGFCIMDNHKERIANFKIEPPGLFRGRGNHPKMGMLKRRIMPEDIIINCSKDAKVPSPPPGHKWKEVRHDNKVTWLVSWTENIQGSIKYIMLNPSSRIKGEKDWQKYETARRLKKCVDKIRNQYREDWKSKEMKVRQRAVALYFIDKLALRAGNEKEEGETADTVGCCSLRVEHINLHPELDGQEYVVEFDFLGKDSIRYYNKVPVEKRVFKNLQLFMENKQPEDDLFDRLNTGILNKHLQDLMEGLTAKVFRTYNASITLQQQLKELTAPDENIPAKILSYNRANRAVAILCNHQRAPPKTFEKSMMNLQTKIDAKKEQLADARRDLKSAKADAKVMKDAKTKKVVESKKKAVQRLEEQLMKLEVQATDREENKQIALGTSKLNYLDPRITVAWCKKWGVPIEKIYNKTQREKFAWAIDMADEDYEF

CNCCCn1c2c(c3ccc(F)cc3c1=O)C(=O)c1cc(OC)cnc1-2 [Compound 6]
GI50 (NCI-60 cancer cell lines; 786-0, Renal Cancer, 786-0): 0.2 µM
GI50 (NCI-60 cancer cell lines; A498, Renal Cancer, A498): 0.37 µM
GI50 (NCI-60 cancer cell lines; A549, Non-Small Cell Lung Cancer, A549/ATCC): 0.11 µM
GI50 (NCI-60 cancer cell lines; ACHN, Renal Cancer, ACHN): 0.12 µM
GI50 (NCI-60 cancer cell lines; BT-549, Breast Cancer, BT-549): 0.58 µM
GI50 (NCI-60 cancer cell lines; CCRF-CEM, Leukemia, CCRF-CEM): 0.26 µM
GI50 (NCI-60 cancer cell lines; COLO 205, Colon Cancer, COLO 205): 0.07 µM
GI50 (NCI-60 cancer cell lines; DU-145, Prostate Cancer, DU-145): 0.2 µM
GI50 (NCI-60 cancer cell lines; EKVX, Non-Small Cell Lung Cancer, EKVX): 0.3 µM
GI50 (NCI-60 cancer cell lines; HCC 2998, Colon Cancer, HCC-2998): 1.15 µM
GI50 (NCI-60 cancer cell lines; HCT-15, Colon Cancer, HCT-15): 0.25 µM
GI50 (NCI-60 cancer cell lines; HCT-116, Colon Cancer, HCT-116): 0.14 µM
GI50 (NCI-60 cancer cell lines; HL-60, Leukemia, HL-60(TB)): 0.22 µM
GI50 (NCI-60 cancer cell lines; HOP-62, Non-Small Cell Lung Cancer, HOP-62): 0.14 µM
GI50 (NCI-60 cancer cell lines; HOP-92, Non-Small Cell Lung Cancer, HOP-92): 0.37 µM
GI50 (NCI-60 cancer cell lines; HT-29, Colon Cancer, HT29): 0.15 µM
GI50 (NCI-60 cancer cell lines; Hs-578T, Breast Cancer, HS 578T): 2.24 µM
GI50 (NCI-60 cancer cell lines; IGROV-1, Ovarian Cancer, IGROV1): 0.32 µM
GI50 (NCI-60 cancer cell lines; K562, Leukemia, K-562): 0.17 µM
GI50 (NCI-60 cancer cell lines; KM12, Colon Cancer, KM12): 0.24 µM
GI50 (NCI-60 cancer cell lines; LOX IMVI, Melanoma, LOX IMVI): 0.14 µM
GI50 (NCI-60 cancer cell lines; Leukemia, SR): 0.12 µM
GI50 (NCI-60 cancer cell lines; MCF7, Breast Cancer, MCF7): 0.03 µM
GI50 (NCI-60 cancer cell lines; MDA-MB-231, Breast Cancer, MDA-MB-231/ATCC): 0.7 µM
GI50 (NCI-60 cancer cell lines; MDA-MB-435, Melanoma, MDA-MB-435): 0.47 µM
GI50 (NCI-60 cancer cell lines; MDA-MB-468, Breast Cancer, MDA-MB-468): 0.22 µM
GI50 (NCI-60 cancer cell lines; MOLT-4, Leukemia, MOLT-4): 0.04 µM
GI50 (NCI-60 cancer cell lines; Malme-3M, Melanoma, MALME-3M): 0.32 µM
GI50 (NCI-60 cancer cell lines; Melanoma, M14): 0.31 µM
GI50 (NCI-60 cancer cell lines; NCI-H23, Non-Small Cell Lung Cancer, NCI-H23): 0.31 µM
GI50 (NCI-60 cancer cell lines; NCI-H226, Non-Small Cell Lung Cancer, NCI-H226): 0.16 µM
GI50 (NCI-60 cancer cell lines; NCI-H322M, Non-Small Cell Lung Cancer, NCI-H322M): 0.45 µM
GI50 (NCI-60 cancer cell lines; NCI-H460, Non-Small Cell Lung Cancer, NCI-H460): 0.05 µM
GI50 (NCI-60 cancer cell lines; NCI-H522, Non-Small Cell Lung Cancer, NCI-H522): 0.06 µM
GI50 (NCI-60 cancer cell lines; OVCAR-3, Ovarian Cancer, OVCAR-3): 0.26 µM
GI50 (NCI-60 cancer cell lines; OVCAR-4, Ovarian Cancer, OVCAR-4): 0.42 µM
GI50 (NCI-60 cancer cell lines; OVCAR-5, Ovarian Cancer, OVCAR-5): 0.35 µM
GI50 (NCI-60 cancer cell lines; OVCAR-8, Ovarian Cancer, OVCAR-8): 0.19 µM
GI50 (NCI-60 cancer cell lines; Ovarian Cancer, NCl/ADR-RES): 0.43 µM
GI50 (NCI-60 cancer cell lines; Prostate Cancer, PC-3): 0.37 µM
GI50 (NCI-60 cancer cell lines; RPMI-8226, Leukemia, RPMI-8226): 0.2 µM
GI50 (NCI-60 cancer cell lines; RXF 393, Renal Cancer, RXF 393): 0.32 µM
GI50 (NCI-60 cancer cell lines; Renal Cancer, U0-31): 0.13 µM
GI50 (NCI-60 cancer cell lines; SF-268, CNS Cancer, SF-268): 0.38 µM
GI50 (NCI-60 cancer cell lines; SF-295, CNS Cancer, SF-295): 0.19 µM
GI50 (NCI-60 cancer cell lines; SF-539, CNS Cancer, SF-539): 0.37 µM
GI50 (NCI-60 cancer cell lines; SK-MEL-2, Melanoma, SK-MEL-2): 1.6 µM
GI50 (NCI-60 cancer cell lines; SK-MEL-5, Melanoma, SK-MEL-5): 0.31 µM
GI50 (NCI-60 cancer cell lines; SK-MEL-28, Melanoma, SK-MEL-28): 1.44 µM
GI50 (NCI-60 cancer cell lines; SK-OV-3, Ovarian Cancer, SK-OV-3): 0.23 µM
GI50 (NCI-60 cancer cell lines; SN12C, Renal Cancer, SN12C): 0.21 µM
GI50 (NCI-60 cancer cell lines; SNB-19, CNS Cancer, SNB-19): 0.22 µM
GI50 (NCI-60 cancer cell lines; SNB-75, CNS Cancer, SNB-75): 0.25 µM
GI50 (NCI-60 cancer cell lines; SW-620, Colon Cancer, SW-620): 0.18 µM
GI50 (NCI-60 cancer cell lines; T47D, Breast Cancer, T-47D): 0.16 µM
GI50 (NCI-60 cancer cell lines; TK-10, Renal Cancer, TK-10): 0.33 µM
GI50 (NCI-60 cancer cell lines; U-251, CNS Cancer, U251): 0.11 µM
GI50 (NCI-60 cancer cell lines; UACC-62, Melanoma, UACC-62): 0.61 µM
GI50 (NCI-60 cancer cell lines; UACC-257, Melanoma, UACC-257): 0.49 µM
mean GI50 across NCI-60 panel (MGM) (NCI-60 cancer cell lines; average of GI50 values across the entire panel of NCI-60 cancer cell lines): 0.24 µM
minimal effective concentration ([1]; Homo sapiens, MCF7, western blotting, MCF-7 cells, 0.5, 1, 2, and 4 μM, 24 hours, read-out: MYC Inhibition): 0.5 to 1 µM
MYC-inhibitory effect (MYC protein, western blot) ([1]; MCF-7, 0.5, 1, 2, and 4 μM, 24 h): clear MYC-inhibitory effect
Top1 Inhibiton (human topoisomerase I): + (weak inhibition, +, MYC expression inhibited at 4.0 μM)
